Measured values taken from patent US4216226A (priority 1977, dated 1980).
Where a name gives a salt, the structure may show the parent alone. Read-outs that look alike come from different tables or passages of the source.

Columns and labels:
viruses = conditions: cited from earlier work
[1] = tested on: Newcastle disease virus (NDV) Miyadera strain; type: cell-based; conditions: HeLa S3 cell; 37° C., 5-7 days; at MDC, 1/2 or 1/4 MDC; vs control
Influenza virus = type: cell-based
in vitro [2] = conditions: human, hela s3 cells
in vitro [3] = conditions: rainbow trout, rtg-2 cells
[4] = tested on: Infectious pancrease necrosis virus (IPNV); type: cell-based
[5] = tested on: Vaccinia virus Lister strain; type: cell-based; conditions: HeLa S3 cell; 37° C., 5-7 days; at MDC, 1/2 or 1/4 MDC; vs control
[6] = tested on: IPNV (infectious pancreas necrosis virus); assay: Preventing IPN virus in fish; type: in vivo, rainbow trout; conditions: 16 ppm water bath 96 hours, 18° C.; for Cumulative number of dying fish: 20 fish
Description: 40 Young (4-6 cm in body length) rainbow trout were sensitised by immersion for 3 hours under aeration in 7.5 liters of a water bath containing IPNV (infectious pancreas necrosis virus) which was prepared by diluting to a 1000-fold volume a cell stock of IPNV (virus titer: 10^6.301 TCID50 /ml) cultured in RTG-2 cells. Immediately after this sensitisation, the fish were divided into two groups each comprising 20 fish and each group was placed in two glass vessels containing 50 liters of water, respectively. The first group of fish was the treated group, while the second group of fish was the control group (untreated).
After the first group of fish was placed in the water-containing vessel, L-hydroxyureidomethyl glycine was dissolved in the water to a concentration of 16 ppm. in this vessel, whereupon the fish were treated during 96 hours with the water bath containing the active compound. Thereafter, the active solution of the bath was replaced by fresh water containing no active compound, and the fish were observed daily to count the number of the young fish which fell dead. The active compound was not added to the water in the second vessel containing the second group of fish (control group), although replacement of water was made in the second vessel. In this way, the effect of L-hydroxyureidomethyl glycine in preventing IPNV infection was estimated. All of the tests were conducted in the water at 18° C.

[7] = tested on: Influenza virus A0 /PR-8 strain; type: in vivo, mice of the ICR strain; conditions: 100 mg/kg, intraperitoneal, twice a day for 3 days; mouse lung at 72 hours
[8] = tested on: vaccinia virus Lister strain; type: in vivo, mice of the ICR strain; conditions: subcutaneous, 4 times first day, twice a day days 2-5, 10th day
mice = conditions: mouse, in vivo, ip

NC(Cc1ccc(F)cc1)C(=O)O (stereo not shown) [p-fluoro-phenyl alanine]
antiviral activity (reported) (viruses): exhibits an antiviral activity

CP(=O)(O)CC[C@H](N)C(=O)O [L-Methylphosphinoethyl glycine sodium salt]
Difference of -log TCID50 /ml, NDV [1]: 2.00 | Difference of -log TCID50 /ml, Influenza virus (calculated from chick hemagglutination titer) (Influenza virus): > 7.3 | MCC (in vitro [2]): > 1000 µg/mL | MCC (in vitro [3]): 4000 µg/mL

N[C@@H](CNC(=O)NO)C(=O)O [L-Hydroxyureidomethyl glycine]
Difference of -log TCID50 /ml, NDV [1]: 0.50 | Difference of -log TCID50 /ml, IPNV [4]: 4.00 | Difference of -log TCID50 /ml, Vaccinia virus [5]: 3.50 | Survival rate ([6]; 67 days, control 10%): 95% | Cumulative number of dying fish ([6]; 28 days, control 0): 0 | Cumulative number of dying fish ([6]; 46 days, control 2): 0 | Cumulative number of dying fish ([6]; 55 days, control 13): 0 | Cumulative number of dying fish ([6]; 67 days, control 18): 1 | Per cent of Inhibition (virus multiplication, HA units) [7]: 65% | Percent of inhibition of pock ([8]; 25 mg/kg): 33.7% | Percent of inhibition of pock ([8]; 50 mg/kg): 48.0% | Acute toxicity LD0 (mice): > 3000 mg/kg | MCC (in vitro [2]): > 1000 µg/mL | MCC (in vitro [3]): 4000 µg/mL
